Measurements as given in patent publication US20130209986A1, “METHOD FOR ENHANCING BUTYRATE PRODUCTION BY CLOSTRIDIUM TYROBUTYRICUM” (KOREA INSTITUTE OF SCIENCE AND TECHNOLOGY, priority 2012, published 2013).

Experiments:
[1] = system: Clostridium tyrobutyricum strains; assay: Fermentation of Clostridium tyrobutyricum with an electron transfer mediator added to the P2 culture medium (Experimental Example 1); assay type: cell-based; conditions: for Enhancement of butyrate production by simply adding the mediator to the medium: simple addition, no reduction electrode
Procedure: The P2 culture medium (Qureshi and Blaschek 1999) of pH 6.4±0.1 containing sucrose of 20 g/L instead glucose was sterilized. The Methyl Viologen (MV) (E°′=−446 mV) (Aldrich, South Korea) was added to the sterilized P2 culture medium with the concentrations of 0.1 mM (embodiment 1-1), 0.4 mM (embodiment 1-2), 0.5 mM (embodiment 1-3), 1.0 mM (embodiment 1-4), 2.0 mM (embodiment 1-5), 5.0 mM (embodiment 1-6) and 10.0 mM (embodiment 1-7). The separated Clostridium tyrobutyricum strains were inoculated on the MV-added P2 culture medium and were cultured at 37° C. and 150 rpm.
The strains were cultured under the same conditions as the conditions of the embodiments 1-1 to 1-7 except for the strains which didn't have an added MV.
The strains were cultured under the same conditions as the conditions of the embodiments 1-1 to 1-7 except for the strains on which 0.1 mM and 0.5 mM of the Neutral Red (NR) (E°′=−325 mV) (Aldrich, South Korea) were added instead of the MV.
The strains were cultured under the same conditions as the conditions of the embodiments 1-1 to 1-7 except for the strains on which 0.5 mM of anthraquinone-1,5-disulfonic acid, AQDS) (E°′=−184 mV) (Aldrich, South Korea) was added instead of the MV.
The butyrate and acetate produced through the embodiments 1-1 to 1-7, the comparison example 1, the comparison examples 2-1 to 2-7 and the comparison examples 3-1 to 3-7 were analyzed by HP-INNOWax column (30 m×250 μm×0.25 μm, Agilent Technologies and the gas chromatography (GC, Agilent technology 6890N Network GC System) with the frame-ionized detector. The hydrogen and carbon dioxide were quantified by multiplying the gas composition with the increased gas volume. The gas composition percentage was analyzed by the GC having a heat conductivity detector. The consumed sucrose concentration was quantified by a high performance liquid chromatography (HPLC) (Hi-plex H, Agilent, Santa Clara, Calif.) with 5 mM of sulfuric acid as a mobile phase at the flow rate of 0.5 mLmin^−1. The growth of microorganisms was checked at 600 nm of absorbance by using Shimadzu UVmini-1240 spectrophotometer or was checked with the Chemical Oxygen Demand (COD, mg/L unit) induced by the base soluble COD from the total COD by using COD vials (C-mac, South Korea, concentration range of 10-1,500 mg/L). The obtained values were average values obtained as the experiments were repeatedly performed three times or four times under a corresponding condition.

[2] = system: Clostridium tyrobutyricum; assay: Fermentation of Clostridium tyrobutyricum in a bioelectrical reactor (BER) with reduction electrode and electron transfer mediator (Experimental Example 2); assay type: cell-based
Procedure: A Bioelectrical Reactor (BER) formed of Pyrex was manufactured, which was specially designed for the sake of the anaerobic bacteria culture by changing a little the H-type reactor with a dual chamber (450 mL each). The reduction electrode (cathode) was a graphite felt electrode (4.5 cm×12 cm), and the oxidation electrode (anode) was a Pt plate electrode (2.5 cm×5 cm). The reference electrode was Ag/AgCl, 3 M KCl (BASi, West Lafayette, Ind.) and was dipped at a portion of the reduction electrode. The portions of the oxidation electrode and the reduction electrode were separated by Nafion 117 positive ion-exchange membrane (Naracell-tech, South Korea). The biological gas was collected by a Tedlar bag connected with a stainless steel fitting inserted in a reduction electrode stopper. The temperature of the reactor was maintained at 37±1° C. by a heating tape (Daihan, South Korea). The temperature sensor was inserted into a partition of the oxidation electrode by way of the stainless steel stand rod.
The portion of the reduction electrode of the reactor has features in that the neutral red was filled with the P2 medium added with 0.1 mM, and the portion of the oxidation electrode was filled with hexacyanoferrate [K4(Fe(CN)6)·3H2O]. The BER operated under a constant reduction electrode potential of −400 mV (vs. Ag/AgCl). The above mentioned potential was set by the potentiostat/galvanostat (EG&G Princeton Applied Research, Model 273A, Princeton, N.J.) which could be controlled by a computer. So, the current between the oxidation electrode and the reduction electrode was monitored. The reduction voltage applied to the reduction electrode was determined from the redox peak in the cyclic voltammogram of the culture liquid to which the neutral red was added at the scan speed of 20 mV/s based on the reduction electrode versus Ag/AgCl. The reduction of the neutral red by the reduction electrode appeared as the color of the solution turned from the red (NRox) to the yellow (NRred) when it was balanced to the negative potential within 5-30 minutes. For the sake of pH-adjusted BER operation, pH was maintained at 6 by temporarily adding 3M NaOH.
The embodiment 3 was performed in the same manner as the embodiment 2 except for the adjustment of pH.
The embodiment 4 was performed in the same manner as the embodiment 2 except that the portion of the reduction electrode of the reactor was filed with the P2 medium added with the MV of 0.5 mM of concentration was operated under a constant reduction electrode potential of −750 mV (vs. Ag/AgCl). In case of the MV, the reduction had features in that the color of the solution turned from a colorlessness (MVox) to a purple color (MVred).

[3] = methyl viologen 0.1 mM (embodiment 1-1)
[4] = methyl viologen 0.4 mM (embodiment 1-2)
[5] = methyl viologen 0.5 mM (embodiment 1-3)
[6] = methyl viologen 1 mM (embodiment 1-4)
[7] = methyl viologen 2 mM (embodiment 1-5)
[8] = methyl viologen 5 mM (embodiment 1-6)
[9] = methyl viologen 10 mM (embodiment 1-7)
[10] = Embodiment 4: methyl viologen 0.5 mM, −750 mV
[11] = Embodiment 2: BER with neutral red 0.1 mM, −400 mV, pH 6 controlled
[12] = Embodiment 3: BER with neutral red 0.1 mM, −400 mV, no pH control

SMILES: O=C1c2cccc(S(=O)(=O)O)c2C(=O)c2cccc(S(=O)(=O)O)c21 [AQDS, anthraquinone-1,5-disulfonic acid]
- Enhancement of butyrate production by simply adding the mediator to the medium [1]: impossible to enhance the production of butyrate

SMILES: C[n+]1ccc(-c2cc[n+](C)cc2)cc1 [Methyl viologen, Methyl Viologen]
- Final concentration of butyrate as compared to the comparison group ([1]; 0.5 mM, simple addition without reduction electrode): about 1.5 times
- Production of butyrate among MV, NR and AQDS (FIG. 2) ([1]; mediators added at 0.5 mM): highest
- Bio-gas % vs. control [1, 3]: 82%
- Bio-gas vol [1, 3]: 110 mL
- Butyrate % vs. control [1, 3]: 115%
- Butyrate final conc. [1, 3]: 6.5 g/L
- OD (600 nm) ([1]; methyl viologen 0.1 mM (embodiment 1-1), P2 medium sucrose 20 g/L, 37° C.): 6.2 (±0.4)
- Bio-gas % vs. control [1, 4]: 80%
- Bio-gas vol [1, 4]: 107 mL
- Butyrate % vs. control [1, 4]: 128%
- Butyrate final conc. [1, 4]: 7.3 g/L
- OD (600 nm) [1, 4]: 6.3 (±0)^
- Bio-gas % vs. control [1, 5]: 65%
- Bio-gas vol [1, 5]: 87 mL
- Butyrate % vs. control [1, 5]: 150%
- Butyrate final conc. [1, 5]: 8.5 g/L
- OD (600 nm) [1, 5]: 5.8 (±0.3)
- Bio-gas % vs. control [1, 6]: 50%
- Bio-gas vol [1, 6]: 67 mL
- Butyrate % vs. control [1, 6]: 109%
- Butyrate final conc. [1, 6]: 6.2 g/L
- OD (600 nm) [1, 6]: 5.4 (±0.8)
- Bio-gas % vs. control [1, 7]: 34%
- Bio-gas vol [1, 7]: 46 mL
- Butyrate % vs. control [1, 7]: 112%
- Butyrate final conc. [1, 7]: 6.4 g/L
- OD (600 nm) [1, 7]: 3.9 (±0.9)
- Bio-gas % vs. control [1, 8]: 3%
- Bio-gas vol [1, 8]: 4 mL
- Butyrate % vs. control [1, 8]: 14%
- Butyrate final conc. [1, 8]: 0.8 g/L
- OD (600 nm) [1, 8]: 1.5 (±1.9)
- Bio-gas % vs. control [1, 9]: 3%
- Bio-gas vol [1, 9]: 4 mL
- Butyrate % vs. control [1, 9]: 12%
- Butyrate final conc. [1, 9]: 0.7 g/L
- OD (600 nm) [1, 9]: 0.2 (±0.1)
- Acetate productivity (maximum productivity) [2, 10]: 0.25 ± 0 g/L, h^−1
- Butyrate productivity (maximum productivity) [2, 10]: 0.34 ± 0.01 g/L, h^−1
- Butyrate yield [2, 10]: 0.43 ± 0.02 g butyrate/g sucrose
- Final butyrate concentration [2, 10]: 7.1 ± 0.4 g/L
- Maximum O.D. (600 nm) [2, 10]: 5.3 ± 0.4
- Specific growth rate [2, 10]: 0.10 ± 0.01 h⁻¹
- Sucrose uptake rate (maximum uptake rate) [2, 10]: 0.85 ± 0.05 g/L, h^−1
- Production of butyrate in the reduction electrode system ([2]; MV, embodiment 4, −750 mV vs. Ag/AgCl): didn't help enhance the production of butyrate

SMILES: Cc1cc2nc3ccc(N(C)C)cc3nc2cc1N.Cl [neutral red, Neutral Red]
- Enhancement of butyrate production by simply adding the mediator to the medium [1]: didn't make any effects
- Enhancement of butyrate production by simply adding the mediator to the medium ([1]; listed as NR): impossible to enhance the production of butyrate
- Acetate productivity (maximum productivity) [2, 11]: 0 g/L, h^−1
- Butyrate productivity (maximum productivity) [2, 11]: 0.28 ± 0.01 g/L, h^−1
- Butyrate yield [2, 11]: 0.44 ± 0.04 g butyrate/g sucrose
- Final butyrate concentration [2, 11]: 8.8 ± 0.9 g/L
- Maximum O.D. (600 nm) [2, 11]: 5.1 ± 0.7
- Specific growth rate [2, 11]: 0.87 ± 0.64 h⁻¹
- Sucrose uptake rate (maximum uptake rate) [2, 11]: 0.67 ± 0 g/L, h^−1
- Acetate productivity (maximum productivity) [2, 12]: 0 g/L, h^−1
- Butyrate productivity (maximum productivity) [2, 12]: 0.31 ± 0.07 g/L, h^−1
- Butyrate yield [2, 12]: 0.45 ± 0.02 g butyrate/g sucrose
- Final butyrate concentration [2, 12]: 6.7 ± 0.3 g/L
- Maximum O.D. (600 nm) [2, 12]: 5.0 ± 0.4
- Specific growth rate [2, 12]: 0.11 ± 0.01 h⁻¹
- Sucrose uptake rate (maximum uptake rate) [2, 12]: 0.64 ± 0.31 g/L, h^−1
- Production of butyrate (FIG. 4) ([2]; embodiment 2, neutral red reduction electrode system, increased from 5 g/L): 8 g/L
- Acetic acid production in the reduction electrode system ([2]; embodiments 2 and 3, neutral red): did not produce acetic acid
- Production of butyrate in the reduction electrode system ([2]; neutral red, embodiments 2 and 3, −400 mV vs. Ag/AgCl): increase in the production of butyrate
